Reference: article PMC8208785, “Therapeutic efficacy of novel memantine nitrate MN‐08 in animal models of Alzheimer’s disease” (Aging Cell, 2021)

Experiments:
Format in all cases: cell-based, rat
[1] = system: cerebellar granule neurons (CGNs); assay: Hoechst 33342 staining of apoptotic bodies in glutamate-challenged CGNs; conditions: 24 h glutamate 100 µM
Experimental: (§1) CGNs were prepared from the 8-day-old Sprague–Dawley rats as described in our previous publication (Li et al., 2005). Briefly, animals were anesthetized and sacrificed, and their cerebella were collected. Then, the freshly collected cerebella were rinsed in cold Kreb’s buffer-BSA and digested with 0.025 % trypsin incubated in a 37°C for 15 min. The reaction was stopped, and the single cell suspension was obtained through pipetting up and down the sedimentary tissue. CGNs were seeded in basal modified Eagle’s medium (ThermoFisher Scientific, Waltham, MA, USA) supplemented with 10 % fetal bovine serum, 25 mM KCl, 2 mM glutamine and 100 units/mL penicillin/streptomycin at a density of 1.5×10^6 cells/mL. […]
Chromatin condensation, the apoptotic characteristic feature, was determined by Hoechst 33342 staining as described in previous publications with some modifications (Guo et al., 2017; Jiajia et al., 2017). […] The nuclei were visualized by using a fluorescence Leica TCS SPE confocal (Leica, Wetzlar, Germany) at 200× magnification. In the observation, cells with bright blue fragmented nuclei, which were showing condensation of chromatin, were counted as apoptotic cells. Condensed nuclei were scored by counting at least 500 cells of three randomly chosen fields for each sample in three separated experiments.

[2] = system: ERK and PI3K/Akt/GSK3β pathway; assay: Western blotting of p-ERK, p-Akt, p-GSK3β and Bcl-2 in glutamate-challenged CGNs; conditions: for upregulation of ERK1/2 phosphorylation induced by glutamate: 2 h pre‐treatment, glutamate 0.5 h
Description: To further characterize the neuroprotection of MN‐08, the level of the key signaling molecules, such as ERK, Akt, and GSK3β, was examined by Western blotting assay. […] Moreover, pre‐treatment with MN‐08 reversed expression of both p‐Akt and p‐GSK3β with the challenge of glutamate. Akt is an important downstream member of PI3K. To further confirm whether the PI3K/Akt pathway was associated with the neuroprotection of MN‐08 against glutamate‐induced excitotoxicity, specific PI3K inhibitor LY294002 was applied and incubated with MN‐08. […] Taken together, MN‐08 might protect against glutamate‐induce cytotoxicity by reversing the dysregulations of ERK pathway and PI3K/Akt/GSK3β pathway.
Western blotting analysis was performed as previously described with minor modifications (Huang, Li, & Nan, 2017). Proteins were extracted from hippocampal tissue and their concentrations determined by the BCA protein assay kit (Fdbio science, Hangzhou, China). The protein (20 μg) was separated on a 12% SDS-PAGE gel and then transferred to PVDF membranes. The membranes were blocked using 5 % nonfat dry milk for 2 h. The protein blots were incubated with the corresponding primary antibodies against p-Akt (#4060, 1:1000, Cell Signaling Technology), Akt (#4685, 1:1000, Cell Signaling Technology), BACE1 (#5606, 1:1000, Cell Signaling Technology), PS1 (#5643, 1:1000, Cell Signaling Technology), p-GSK3β (#5558, 1:1000, Cell Signaling Technology), GSK3β (#12456, 1:1000, Cell Signaling Technology), Bcl-2 (#3498, 1:1000, Cell Signaling Technology), Bax (#5023, 1:1000, Cell Signaling Technology), Cleaved caspase-3 (#9661, 1:1000, Cell Signaling Technology), Caspase-3 (#9662, 1:1000, Cell Signaling Technology), ADAM10 (#14194, 1:1000, Cell Signaling Technology), APP (#ab241592, 1:1000, Abcam), sAPPα (#ab126723, 1:1000, Abcam), NEP (#ab216341, 1:1000, Abcam), Synapsin I (#ab64581, 1:1000, Abcam), Synapsin II (#ab76494, 1:1000, Abcam), NR2A (#ab124913, 1:2000, Abcam), PSD95 (#ab18258, 1:1000, Abcam), Synaptophysin (#ab32127, 1:1000, Abcam), IDE (#ab133561, 1:1000, Abcam), Drebin (#ab178408, 1:1000, Abcam) and Tau-5 (#ab80579, 1:2000, Abcam) overnight at 4°C. After washing 3 times, the membranes were incubated with the respective HRP-conjugated secondary antibody. ECL Western blotting Detection Reagents (Fdbio science, Hangzhou, China) were used to perform Chemiluminescence detection. Quantitative analysis of protein bands was conducted by the Carestream system (Carestream Health, Inc, USA).
as §1, with “cells/mL. Cytosine arabinoside (10 μM) was added to inhibit the growth of non-neuronal cells at 24 h after seeding. All experiments were carried out after 8 days in vitro.” for “cells/mL.”

[3] = system: primary hippocampal neurons; assay: intracellular Ca2+ by Fluo-4 confocal microscopy in primary hippocampal neurons; conditions: glutamate 100 µM
Experimental: Rat hippocampal neurons were obtained from 18-day-old Sprague-Dawley rat embryos as previously described with modifications (Subramaniam et al., 2005). The hippocampi were obtained and dissected on ice. Then, the hippocampi were digested with 0.25 % trypsin at 37°C for 15 min. The single neurons were mechanically dissociated by using a Pasteur pipette. The neurons were plated at a density of 2×10^5 cells/mL on 35-mm culture dishes, which were pre-coated with poly-L-lysine (10 μg/mL), in neurobasal eagle’s medium containing 10 % fetal bovine serum, 0.5 mM glutamine, 100 units/mL of penicillin, 100 μg/mL of streptomycin. […]
A confocal laser scanning microscope was used to evaluate relative changes in intracellular calcium concentrations [Ca^2+]i by monitoring Fluo-4 fluorescence after intracellular cleavage of superfused Fluo-4 acetoxymethylester (1 μM, with excitation at 488 nm and emission at 510 nm) (Bkaily, Al-Khoury, Simon, & Jacques, 2017). […] The fluorescence images were obtained by Leica TCS SPE Confocal Microscope and analyzed using the LAS AF software (Leica Microsystems Co., Wetzlar and Mannheim, Germany). The data were obtained by evaluating the fluorescence (F) from selected areas within a cell, following subtraction of background fluorescence, and division by the fluorescence intensity before drug application (F0), expressed as F/F0. […]

Structure (SMILES)	numbers of apoptotic bodies ([1]; MN‐08 30 µM)	expression of both p‐Akt and p‐GSK3β with the challenge of glutamate ([2]; MN‐08 30 µM pre‐treatment)	upregulation of ERK1/2 phosphorylation induced by glutamate ([2]; MN‐08 30 µM)	Bcl‐2 downregulation caused by glutamate ([2]; pre‐treatment MN‐08 30 µM)	intracellular Ca2+ influx caused by glutamate ([3]; MN‐08 30 µM)	numbers of apoptotic bodies ([1]; memantine 10 µM)	upregulation of ERK1/2 phosphorylation induced by glutamate ([2]; memantine 10 µM)	intracellular Ca2+ influx caused by glutamate ([3]; memantine 10 µM)
CCC12CC3CC(N)(C1)CC(CO[N+](=O)[O-])(C3)C2 (centres unmarked) [MN‐08]	significantly reduced	reversed	significantly inhibited	significantly reversed	inhibited			
CC12CC3CC(C)(C1)CC(N)(C3)C2 [memantine, 1‐amino‐3,5‐dimethyladamantane]						significantly reduced	significantly inhibited	inhibited
